Test results taken from ChEMBL document CHEMBL4507275, “Data for DCP probe BI-2545” (2021).

Tests used:
[1] = molecular target: RAC-beta serine/threonine-protein kinase (Homo sapiens) (UniProt P31751); details: Compound concentration 1000.0 nM
[2] = molecular target: NUAK family SNF1-like kinase 1 (Homo sapiens) (UniProt O60285); details: Compound concentration 1000.0 nM
[3] = molecular target: Mitogen-activated protein kinase kinase kinase 6 (Homo sapiens) (UniProt O95382); details: Compound concentration 1000.0 nM
Chain of Mitogen-activated protein kinase kinase kinase 6 (Homo sapiens) (O95382 whole entry): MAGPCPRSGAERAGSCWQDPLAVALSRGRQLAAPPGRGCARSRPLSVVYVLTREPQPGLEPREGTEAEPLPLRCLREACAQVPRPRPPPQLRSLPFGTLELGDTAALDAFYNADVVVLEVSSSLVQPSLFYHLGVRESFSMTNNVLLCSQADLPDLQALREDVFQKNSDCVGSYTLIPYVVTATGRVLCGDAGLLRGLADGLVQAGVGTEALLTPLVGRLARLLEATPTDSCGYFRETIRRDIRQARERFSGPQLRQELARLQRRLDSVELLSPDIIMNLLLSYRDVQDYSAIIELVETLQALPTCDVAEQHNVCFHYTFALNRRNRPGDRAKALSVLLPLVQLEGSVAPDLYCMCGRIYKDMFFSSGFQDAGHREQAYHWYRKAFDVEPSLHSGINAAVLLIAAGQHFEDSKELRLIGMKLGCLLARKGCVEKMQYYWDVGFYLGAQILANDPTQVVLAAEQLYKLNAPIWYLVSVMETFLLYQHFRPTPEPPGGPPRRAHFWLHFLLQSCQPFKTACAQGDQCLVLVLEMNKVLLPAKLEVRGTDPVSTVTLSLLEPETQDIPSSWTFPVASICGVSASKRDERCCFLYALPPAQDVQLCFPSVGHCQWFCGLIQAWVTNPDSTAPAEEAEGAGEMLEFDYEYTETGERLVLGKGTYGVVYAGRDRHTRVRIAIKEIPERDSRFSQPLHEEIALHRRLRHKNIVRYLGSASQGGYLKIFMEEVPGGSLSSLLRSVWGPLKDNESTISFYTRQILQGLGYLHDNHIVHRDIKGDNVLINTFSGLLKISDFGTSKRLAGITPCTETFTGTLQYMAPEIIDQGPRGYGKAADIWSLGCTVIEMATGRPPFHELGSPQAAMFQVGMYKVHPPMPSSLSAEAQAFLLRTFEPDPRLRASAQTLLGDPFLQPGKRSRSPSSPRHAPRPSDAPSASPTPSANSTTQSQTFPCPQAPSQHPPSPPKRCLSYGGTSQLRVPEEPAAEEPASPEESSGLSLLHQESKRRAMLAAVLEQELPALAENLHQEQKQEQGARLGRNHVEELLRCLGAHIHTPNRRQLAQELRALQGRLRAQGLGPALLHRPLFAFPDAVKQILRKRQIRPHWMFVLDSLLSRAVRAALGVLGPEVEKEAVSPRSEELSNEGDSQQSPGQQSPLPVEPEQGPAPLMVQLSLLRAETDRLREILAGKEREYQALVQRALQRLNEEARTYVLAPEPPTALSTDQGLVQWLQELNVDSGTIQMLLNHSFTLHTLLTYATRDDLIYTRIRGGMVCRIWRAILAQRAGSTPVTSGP

[4] = molecular target: Aurora kinase C (Homo sapiens) (UniProt Q9UQB9); details: Compound concentration 1000.0 nM
[5] = molecular target: Tyrosine-protein kinase receptor UFO (Homo sapiens) (UniProt P30530); details: Compound concentration 1000.0 nM
[6] = molecular target: Tyrosine-protein kinase Blk (Homo sapiens) (UniProt P51451); details: Compound concentration 1000.0 nM
[7] = molecular target: Serine/threonine-protein kinase BRSK1 (Homo sapiens) (UniProt Q8TDC3); details: Compound concentration 1000.0 nM
[8] = molecular target: Cyclin-dependent kinase-like 2 (Homo sapiens) (UniProt Q92772); details: Compound concentration 1000.0 nM
[9] = molecular target: Serine/threonine-protein kinase Chk1 (Homo sapiens) (UniProt O14757); details: Compound concentration 1000.0 nM
[10] = molecular target: Macrophage colony-stimulating factor 1 receptor (Homo sapiens) (UniProt P07333); details: Compound concentration 1000.0 nM
[11] = molecular target: Casein kinase I isoform epsilon (Homo sapiens) (UniProt P49674); details: Compound concentration 1000.0 nM
[12] = molecular target: Ephrin type-A receptor 1 (Homo sapiens) (UniProt P21709); details: Compound concentration 1000.0 nM
[13] = molecular target: Serine/threonine-protein kinase/endoribonuclease IRE1 (Homo sapiens) (UniProt O75460); details: Compound concentration 1000.0 nM
[14] = molecular target: Fibroblast growth factor receptor 1 (Homo sapiens) (UniProt P11362); details: Compound concentration 1000.0 nM
[15] = molecular target: Fibroblast growth factor receptor 2 (Homo sapiens) (UniProt P21802); details: Compound concentration 1000.0 nM
[16] = tested on: Receptor-type tyrosine-protein kinase FLT3 (Homo sapiens), P36888 [N841I]; details: Compound concentration 1000.0 nM
[17] = molecular target: Serine/threonine-protein kinase haspin (Homo sapiens) (UniProt Q8TF76); details: Compound concentration 1000.0 nM
[18] = molecular target: Tyrosine-protein kinase HCK (Homo sapiens) (UniProt P08631); details: Compound concentration 1000.0 nM
[19] = molecular target: Homeodomain-interacting protein kinase 3 (Homo sapiens) (UniProt Q9H422); details: Compound concentration 1000.0 nM
[20] = molecular target: Tyrosine-protein kinase JAK1 (Homo sapiens) (UniProt P23458); details: Compound concentration 1000.0 nM
Chain of Tyrosine-protein kinase JAK1 (Homo sapiens) (P23458 whole entry): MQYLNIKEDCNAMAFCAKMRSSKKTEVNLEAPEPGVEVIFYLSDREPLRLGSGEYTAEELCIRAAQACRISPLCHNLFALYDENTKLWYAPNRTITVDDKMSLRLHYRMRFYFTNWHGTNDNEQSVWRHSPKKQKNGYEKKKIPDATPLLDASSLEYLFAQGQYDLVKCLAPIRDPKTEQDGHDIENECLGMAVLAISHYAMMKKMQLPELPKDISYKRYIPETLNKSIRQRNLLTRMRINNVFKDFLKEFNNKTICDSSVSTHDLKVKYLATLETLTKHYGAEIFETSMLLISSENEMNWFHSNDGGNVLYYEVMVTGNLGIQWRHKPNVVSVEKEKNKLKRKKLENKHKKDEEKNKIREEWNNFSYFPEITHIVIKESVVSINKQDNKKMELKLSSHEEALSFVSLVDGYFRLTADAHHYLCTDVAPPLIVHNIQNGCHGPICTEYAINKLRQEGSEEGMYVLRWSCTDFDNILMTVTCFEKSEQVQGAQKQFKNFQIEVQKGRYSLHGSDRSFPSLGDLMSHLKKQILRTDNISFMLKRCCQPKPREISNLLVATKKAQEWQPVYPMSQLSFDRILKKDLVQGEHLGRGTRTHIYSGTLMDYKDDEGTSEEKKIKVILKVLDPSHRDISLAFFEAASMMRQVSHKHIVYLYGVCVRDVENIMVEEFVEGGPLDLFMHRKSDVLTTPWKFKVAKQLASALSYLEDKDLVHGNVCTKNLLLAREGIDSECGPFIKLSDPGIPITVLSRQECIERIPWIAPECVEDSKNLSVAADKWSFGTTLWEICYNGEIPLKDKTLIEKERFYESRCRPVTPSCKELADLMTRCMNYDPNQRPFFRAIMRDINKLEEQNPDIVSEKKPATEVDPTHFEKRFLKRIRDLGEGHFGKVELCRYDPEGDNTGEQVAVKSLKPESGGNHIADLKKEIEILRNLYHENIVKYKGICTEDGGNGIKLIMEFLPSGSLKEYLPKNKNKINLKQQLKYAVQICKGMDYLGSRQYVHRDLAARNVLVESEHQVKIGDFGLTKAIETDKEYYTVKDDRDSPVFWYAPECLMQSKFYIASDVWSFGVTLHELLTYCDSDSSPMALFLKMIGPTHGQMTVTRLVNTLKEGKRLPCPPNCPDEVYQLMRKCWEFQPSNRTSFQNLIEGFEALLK

[21] = tested on: Mast/stem cell growth factor receptor Kit (Homo sapiens), P10721 [D816V]; details: Compound concentration 1000.0 nM
[22] = molecular target: Dual specificity mitogen-activated protein kinase kinase 1 (Homo sapiens) (UniProt Q02750); details: Compound concentration 1000.0 nM
[23] = molecular target: Dual specificity mitogen-activated protein kinase kinase 3 (Homo sapiens) (UniProt P46734); details: Compound concentration 1000.0 nM
[24] = molecular target: Maternal embryonic leucine zipper kinase (Homo sapiens) (UniProt Q14680); details: Compound concentration 1000.0 nM
[25] = molecular target: MAP kinase-interacting serine/threonine-protein kinase 1 (Homo sapiens) (UniProt Q9BUB5); details: Compound concentration 1000.0 nM
[26] = molecular target: Myosin-IIIa (Homo sapiens) (UniProt Q8NEV4); details: Compound concentration 1000.0 nM
[27] = molecular target: Serine/threonine-protein kinase Nek2 (Homo sapiens) (UniProt P51955); details: Compound concentration 1000.0 nM
[28] = molecular target: Serine/threonine-protein kinase NIM1 (Homo sapiens) (UniProt Q8IY84); details: Compound concentration 1000.0 nM
[29] = molecular target: Serine/threonine-protein kinase OSR1 (Homo sapiens) (UniProt O95747); details: Compound concentration 1000.0 nM
Chain of Serine/threonine-protein kinase OSR1 (Homo sapiens) (O95747 2-527 limits assumed): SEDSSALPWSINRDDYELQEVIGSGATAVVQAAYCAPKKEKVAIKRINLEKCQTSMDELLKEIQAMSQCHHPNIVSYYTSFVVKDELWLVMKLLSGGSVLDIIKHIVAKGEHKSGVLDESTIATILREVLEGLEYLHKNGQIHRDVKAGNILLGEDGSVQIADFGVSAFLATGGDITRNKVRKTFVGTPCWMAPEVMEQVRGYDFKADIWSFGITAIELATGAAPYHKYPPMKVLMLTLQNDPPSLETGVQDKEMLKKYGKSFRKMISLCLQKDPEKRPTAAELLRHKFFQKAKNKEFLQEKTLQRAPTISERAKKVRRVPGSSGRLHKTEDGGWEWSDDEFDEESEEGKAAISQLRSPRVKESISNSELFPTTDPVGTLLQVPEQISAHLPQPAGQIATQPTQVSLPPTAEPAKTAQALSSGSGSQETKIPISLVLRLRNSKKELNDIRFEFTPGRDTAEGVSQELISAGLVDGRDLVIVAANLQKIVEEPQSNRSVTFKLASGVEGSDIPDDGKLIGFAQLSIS

[30] = molecular target: Calcium-dependent protein kinase 1 (Plasmodium falciparum) (UniProt P62344); details: Compound concentration 1000.0 nM
[31] = molecular target: Serine/threonine-protein kinase pim-3 (Homo sapiens) (UniProt Q86V86); details: Compound concentration 1000.0 nM
[32] = molecular target: Serine/threonine-protein kinase D3 (Homo sapiens) (UniProt O94806); details: Compound concentration 1000.0 nM
[33] = molecular target: Ribosomal protein S6 kinase alpha-2 (Homo sapiens) (UniProt Q15349); details: Compound concentration 1000.0 nM
Chain of Ribosomal protein S6 kinase alpha-2 (Homo sapiens) (Q15349 whole entry): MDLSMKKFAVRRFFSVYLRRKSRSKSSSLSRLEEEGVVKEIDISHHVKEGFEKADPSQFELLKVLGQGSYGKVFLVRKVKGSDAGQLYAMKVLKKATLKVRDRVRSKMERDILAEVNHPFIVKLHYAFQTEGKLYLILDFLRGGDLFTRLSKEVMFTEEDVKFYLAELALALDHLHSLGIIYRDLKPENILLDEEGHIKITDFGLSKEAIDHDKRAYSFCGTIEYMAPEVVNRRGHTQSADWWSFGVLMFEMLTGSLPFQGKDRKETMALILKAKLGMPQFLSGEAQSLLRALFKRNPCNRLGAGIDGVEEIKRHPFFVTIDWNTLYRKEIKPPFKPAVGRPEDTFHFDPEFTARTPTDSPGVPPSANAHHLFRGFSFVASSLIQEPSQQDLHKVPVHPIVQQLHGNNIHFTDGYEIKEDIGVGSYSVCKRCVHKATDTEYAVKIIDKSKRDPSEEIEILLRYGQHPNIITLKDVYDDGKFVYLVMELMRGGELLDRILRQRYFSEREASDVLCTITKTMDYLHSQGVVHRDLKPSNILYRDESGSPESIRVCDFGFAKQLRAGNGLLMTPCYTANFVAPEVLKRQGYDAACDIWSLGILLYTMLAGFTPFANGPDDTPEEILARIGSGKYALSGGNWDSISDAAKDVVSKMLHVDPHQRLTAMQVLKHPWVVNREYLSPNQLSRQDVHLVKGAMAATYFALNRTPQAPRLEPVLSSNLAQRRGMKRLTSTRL

[34] = molecular target: Ribosomal protein S6 kinase alpha-6 (Homo sapiens) (UniProt Q9UK32); details: Compound concentration 1000.0 nM
[35] = molecular target: Serine/threonine-protein kinase 16 (Homo sapiens) (UniProt O75716); details: Compound concentration 1000.0 nM
[36] = molecular target: Serine/threonine-protein kinase 36 (Homo sapiens) (UniProt Q9NRP7); details: Compound concentration 1000.0 nM
Chain of Serine/threonine-protein kinase 36 (Homo sapiens) (Q9NRP7 whole entry): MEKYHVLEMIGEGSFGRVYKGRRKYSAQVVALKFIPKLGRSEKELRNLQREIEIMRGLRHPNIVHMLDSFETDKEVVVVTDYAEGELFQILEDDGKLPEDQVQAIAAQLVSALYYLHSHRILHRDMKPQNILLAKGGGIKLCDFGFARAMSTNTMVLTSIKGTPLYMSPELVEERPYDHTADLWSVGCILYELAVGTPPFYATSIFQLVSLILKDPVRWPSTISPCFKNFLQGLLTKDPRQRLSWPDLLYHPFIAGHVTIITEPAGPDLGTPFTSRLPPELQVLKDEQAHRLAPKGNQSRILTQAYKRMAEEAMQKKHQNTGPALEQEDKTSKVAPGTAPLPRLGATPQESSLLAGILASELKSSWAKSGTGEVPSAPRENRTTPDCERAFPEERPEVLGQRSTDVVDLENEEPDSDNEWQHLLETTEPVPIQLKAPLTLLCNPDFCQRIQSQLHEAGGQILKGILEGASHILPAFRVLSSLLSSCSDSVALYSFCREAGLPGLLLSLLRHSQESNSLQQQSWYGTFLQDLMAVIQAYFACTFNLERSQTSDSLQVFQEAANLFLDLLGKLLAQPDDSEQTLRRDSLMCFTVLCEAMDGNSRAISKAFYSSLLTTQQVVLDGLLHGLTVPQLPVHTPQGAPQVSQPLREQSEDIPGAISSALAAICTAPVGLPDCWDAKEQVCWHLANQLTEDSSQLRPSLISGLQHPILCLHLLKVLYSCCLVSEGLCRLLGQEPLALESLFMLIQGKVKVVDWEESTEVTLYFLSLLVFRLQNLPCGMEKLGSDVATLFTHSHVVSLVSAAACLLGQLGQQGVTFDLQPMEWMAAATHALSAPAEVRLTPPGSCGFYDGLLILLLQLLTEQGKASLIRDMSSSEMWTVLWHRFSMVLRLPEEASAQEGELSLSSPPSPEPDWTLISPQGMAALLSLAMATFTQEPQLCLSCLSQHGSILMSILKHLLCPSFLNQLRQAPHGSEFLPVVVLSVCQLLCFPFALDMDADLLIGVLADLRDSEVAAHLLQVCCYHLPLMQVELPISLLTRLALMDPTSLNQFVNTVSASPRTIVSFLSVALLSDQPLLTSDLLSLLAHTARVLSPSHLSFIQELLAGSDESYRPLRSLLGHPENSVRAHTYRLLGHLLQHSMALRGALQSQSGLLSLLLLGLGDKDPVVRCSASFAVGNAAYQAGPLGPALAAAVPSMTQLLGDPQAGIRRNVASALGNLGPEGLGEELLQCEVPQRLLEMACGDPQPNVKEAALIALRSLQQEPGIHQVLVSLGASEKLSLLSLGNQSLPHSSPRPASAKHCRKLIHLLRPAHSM

[37] = molecular target: STE20/SPS1-related proline-alanine-rich protein kinase (Homo sapiens) (UniProt Q9UEW8); details: Compound concentration 1000.0 nM
[38] = molecular target: Serine/threonine-protein kinase tousled-like 1 (Homo sapiens) (UniProt Q9UKI8); details: Compound concentration 1000.0 nM
[39] = molecular target: Tyrosine-protein kinase TXK (Homo sapiens) (UniProt P42681); details: Compound concentration 1000.0 nM
[40] = molecular target: Serine/threonine-protein kinase WNK3 (Homo sapiens) (UniProt Q9BYP7); details: Compound concentration 1000.0 nM
[41] = molecular target: Serine/threonine-protein kinase 25 (Homo sapiens) (UniProt O00506); details: Compound concentration 1000.0 nM
[42] = molecular target: 5-hydroxytryptamine receptor 2B (Homo sapiens) (UniProt P41595); details: Compound concentration 10.0 uM
[43] = molecular target: Alpha-1B adrenergic receptor (Homo sapiens) (UniProt P35368); details: Compound concentration 10.0 uM
[44] = molecular target: Beta-1 adrenergic receptor (Homo sapiens) (UniProt P08588); details: Compound concentration 10.0 uM
[45] = molecular target: Beta-3 adrenergic receptor (Homo sapiens) (UniProt P13945); details: Compound concentration 10.0 uM

O=C(NC[C@@H]1[C@H]2CN(C(=O)OCc3cc(C(F)(F)F)cc(C(F)(F)F)c3)C[C@@H]12)c1ccc2[nH]nnc2c1 [BI 2545]
inactive: residual activity [1] 100% | residual activity [2] 87% | residual activity [3] 81% | residual activity [4] 91% | residual activity [5] 87% | residual activity [6] 100% | residual activity [7] 89% | residual activity [8] 95% | residual activity [9] 92% | residual activity [10] 95% | residual activity [11] 100% | residual activity [12] 100% | residual activity [13] 77% | residual activity [14] 90% | residual activity [15] 100% | residual activity [16] 90% | residual activity [17] 84% | residual activity [18] 100% | residual activity [19] 89% | residual activity [20] 100% | residual activity [21] 93% | residual activity [22] 83% | residual activity [23] 93% | residual activity [24] 97% | residual activity [25] 90% | residual activity [26] 98% | residual activity [27] 100% | residual activity [28] 100% | residual activity [29] 85% | residual activity [30] 99% | residual activity [31] 100% | residual activity [32] 83% | residual activity [33] 84% | residual activity [34] 86% | residual activity [35] 100% | residual activity [36] 100% | residual activity [37] 80% | residual activity [38] 68% | residual activity [39] 84% | residual activity [40] 100% | residual activity [41] 95% | inhibition [42] 45.9% | inhibition [43] 33.4% | inhibition [44] 13.3% | inhibition [45] 31.5%

Cc1nccc(COC(=O)N2C[C@@H]3[C@@H](CNC(=O)c4ccc5[nH]nnc5c4)[C@@H]3C2)n1 [BI 3017]
inactive: residual activity [1] 98% | residual activity [2] 82% | residual activity [3] 78% | residual activity [4] 100% | residual activity [5] 88% | residual activity [6] 93% | residual activity [7] 100% | residual activity [8] 95% | residual activity [9] 100% | residual activity [10] 100% | residual activity [11] 100% | residual activity [12] 100% | residual activity [13] 90% | residual activity [14] 91% | residual activity [15] 78% | residual activity [16] 82% | residual activity [17] 91% | residual activity [18] 99% | residual activity [19] 76% | residual activity [20] 85% | residual activity [21] 100% | residual activity [22] 92% | residual activity [23] 84% | residual activity [24] 100% | residual activity [25] 91% | residual activity [26] 99% | residual activity [27] 100% | residual activity [28] 87% | residual activity [29] 100% | residual activity [30] 100% | residual activity [31] 97% | residual activity [32] 100% | residual activity [33] 91% | residual activity [34] 95% | residual activity [35] 80% | residual activity [36] 92% | residual activity [37] 79% | residual activity [38] 87% | residual activity [39] 94% | residual activity [40] 91% | residual activity [41] 100% | inhibition [42] 27.1% | inhibition [43] 30.2% | inhibition [44] 12.4% | inhibition [45] -6.02%
